Measured values published in patent US5821252A, “Method of blocking nerve conduction by treatment with branched-chain esters of 2-[4-(2-piperidine-ethoxy)-benzoyl]-benzoic acid and pharmaceutically acceptable salts thereof” (priority 1988, dated 1998).
Read-outs that look alike come from different tables or passages of the source.

How the values were obtained:
Porcine liver esterase = assay: Enzymatic hydrolysis rates by porcine liver esterase; format: in vitro ADME; settings: 1 mM, pH 8.0, 37° C.
Method: Porcine liver esterase (0.5 U=2 μg) was preincubated in 40 mM Tris-HCl buffer, pH 8.0, at 37° C. for 5 min. The reaction was initiated with the addition of the test compound (final concentration, 1 mM) in the final volume of 250 μl. Enzyme reaction was terminated at different time intervals by the addition of 60 μl of 1M acetic acid. The solution was made alkaline (pH 10.5) by adding 0.4M NaOH and the alkaline solution was rapidly extracted (three times) with 2.5 ml of chloroform. An aliquot of the aqueous supernatant was diluted with double distilled water and the absorbance was measured at 290 nm. Amount of test compound III (molar extinction=14,400) formed was calculated.

Guinea pig ileum = assay: Antispasmodic activity in isolated guinea pig ileum (acetylcholine contraction); format: cell-based; settings: for Duration of action: isolated guinea pig ileum
Method: Small intestines obtained from freshly sacrificed guinea pigs (weight range, 200-400 g) of either sex were cleaned and stored in tyrode solution. A piece of ileum was mounted in an organ bath containing tyrode solution at 37° C. and maintained at a tension of 0.5 to 1.0 g. The solution was continuously aerated with compressed air. After an initial equilibration period, a sub-maximal dose of acetylcholine required for measurable contraction was standardized. Tension changes were monitored using an isotonic strain gauge attached to the tissue and the responses were recorded on a strip chart recorder. Antispasmodic activity of test compounds at different concentrations was followed and the IC50, values were calculated from dose response curves.

small intestine motility [1] = assay: Small intestinal motility in the conscious dog, phase I and II activity; format: in vivo; settings: for rank order of potency: spontaneous motility of small intestine, conscious dog
Text: (§1) Male dogs (THG Tierhandelsgesellschaft Rodenbach, Hoe: BEAK (Beagle)) weighing 15-20 kg were used in all experiments. At least 4 weeks prior to the experiment the dogs had been equipped with miniaturized strain gage force transducers (T1-T3) (2×4 mm), sutured onto the gut at the locations mentioned below. The cables of the transducers were embedded into a cannula which carried the plug for external electric connection. This stainless steel cannula was implanted into the abdominal wall, close below the costal arch. Each transducer was connected to a measuring bridge. The signals were on line stored using a HP 9835 A computer, allowing later analysis of the data.
(§2) 18 hours prior to the experiment food was withdrawn from the animals, water ad libidum. All experiments started between 08:00 and 09:00 am.
(§3) The following motility parameters were determined:
The integral under the concentration curves at 10 min intervals (mN×10min) as an index of phase I+II activity. The duration of drug action (min.)
(§4) The duration of the interdigestive migrating complex (IMC) (min) as a measure of phase III activity.
(§5) Test Compound II was given at doses of 0.2 and 0.5 mg/kg i.v. or 5 mg/kg i.g., dissolved in saline, in a volume of 1 ml/kg (i.v.) or 2 ml/kg (i.g.), n=3-6. Control n=26.
Reference substances: Buscopan, pitofenon.
Buscopan was given at doses of 0.3 and 1 mg/kg i.v., dissolved in saline, in a volume of 1 ml/kg, n=4-6. Pitofenone was given at doses of 1 mg/kg i.v., dissolved in saline, in a volume of 1 ml/kg, n=8.
1D50 -values were determined graphically.

small intestine motility [2] = assay: Small intestinal motility in the conscious dog, phase III activity, intragastrical; format: in vivo; settings: 5 mg/kg intragastrically
Text: as §1, §2, §3, §4, §5

colonic motility = assay: Motility of the large bowel (colonic motor complex) in conscious dogs; format: in vivo, dog
Text: Male dogs (THG Tierhandelsgesellschaft Rodenbach, Hoe:BEAK (Beagle)) weighing 15-20 kg were used in all experiments.
as §1, with “At” for “Male dogs (THG Tierhandelsgesellschaft Rodenbach, Hoe: BEAK (Beagle)) weighing 15-20 kg were used in all experiments. At”, “prior” for “prior to”, “(T1-T2)” for “(T1-T3)”, “on-line” for “on line”, “computer, thereby” for “computer,”
T1: Colon ascendens 10 cm aborafrom the ileoceval valve (ICV)
T2: Colon transversum 25 cm aborad from the ICV
18 hours prior to the experiment food was withdrawn from the animals, water ad libidum All experiments started between 08:00 and 09:00 am.
The following parameters were determined:
The duration of the cycle (min)
The duration of the colonic motor complex (CMC) (min)
The maximal height of the concentrations (AU: arbitrary units)
Data from the two recording sites (T1-T2) were pooled. […]
Statistical methods: For detection of significant differences (p<0.05) the unpaired t-test was used. Only significant differences were indicated by *.

sciatic nerve = assay: Conduction block anaesthesia in the rat, injection near sciatic nerve; format: in vivo; settings: for blockade of nerve conduction: injected near the sciatic nerve, hydrochloride
Method: Conduction block anaesthesia was produced in the rat using compound II [(Isopropyl 2-(4-2-piperidinoethoxy)-benzoyl)benzoate hydrochloride] according to the method of Traunt. (Traunt, A. P. Arch. Int. Phamacodyn. 115:483-497,1957).
The conduction block produced was of long duration and required a number of days for complete recovery. A dose of 20 mg/kg compound II blocked nerve conduction in the rat for about 33 days. Ten mg/kg of compound II blocked the nerve for 18±2 days (n=25). In comparison, 10 mg/kg of lignocaine, a standard local anesthetic, produced conduction block for only 0.086±0.01 days (n-10). […] This long lasting but reversible blockade of nerve conduction is of significant interest in the treatment of cancers, neuralgias and post-surgical states.

[3] = cited from earlier work

μmol test compound III formed per mg protein per ml (Porcine liver esterase; time 0.0 hours) | μmol test compound III formed per mg protein per ml (Porcine liver esterase; time 0.5 hours) | μmol test compound III formed per mg protein per ml (Porcine liver esterase; time 2.0 hours) | μmol test compound III formed per mg protein per ml (Porcine liver esterase; time 3.5 hours) | Structure (SMILES) | Duration of action (Guinea pig ileum) [min] | rank order of potency (small intestine motility [1]) | duration of nerve conduction block (sciatic nerve; 10 mg/kg near sciatic nerve) [days] | also measured
0.00 μmol per mg protein per ml | 0.05 μmol per mg protein per ml | 0.10 μmol per mg protein per ml | 0.10 μmol per mg protein per ml | CC(C)OC(=O)c1ccccc1C(=O)c1ccc(OCCN2CCCCC2)cc1.Cl [Test compound II, Isopropyl-2-[4-(2-piperidino-ethoxy)-benzoyl]-benzoate hydrochloride] | > 7.0 | Test Compound II>buscopan>pitofenon | 18 ± 2 | duration of inhibitory effect (small intestine motility [1]; 0.5 mg/kg i.v.): approximately one; inhibition of phase III activity (small intestine motility [2]): a pronounced inhibition of phase III activity; effect on colonic motility (colonic motility; 1 mg/kg i.g.): uneffective; inhibition of colonic motility (colonic motility; 4 mg/kg i.g. (so in the source)): inhibited colonic motility (CMC in the conscious dog completely; duration of nerve conduction block (sciatic nerve; 20 mg/kg near sciatic nerve): about 33 days; blockade of nerve conduction (sciatic nerve; listed as Compound II): dose-dependent blockade of nerve conduction; blockade of nerve conduction (sciatic nerve; listed as compound II): reversible blockade of nerve conduction lasting for hours to days
0.00 μmol per mg protein per ml | 0.50 μmol per mg protein per ml | 1.62 μmol per mg protein per ml | 2.78 μmol per mg protein per ml | COC(=O)c1ccccc1C(=O)c1ccc(OCCN2CCCCC2)cc1.Cl [Test compound I, Methyl-2-[4-(2-piperidino-ethoxy)-benzoyl]-benzoate hydrochloride] | < 1.5 | Test Compound II>buscopan>pitofenon | – | IC50 (Guinea pig ileum; Cavia porcellus, acetylcholine contraction, isolated ileum, 37° C.): 1 µg/mL; antispasmodic activity ([3]; administered intravenously): potent antispasmodic activity; antispasmodic activity ([3]; administered orally): considerably reduced; metabolism of methyl ester to the corresponding acid ([3]; oral): rapid metabolism of the methyl ester to the corresponding acid
– | – | – | – | CCCC[N+]1(C)[C@@H]2C[C@@H](OC(=O)[C@H](CO)c3ccccc3)C[C@H]1[C@@H]1O[C@@H]12 (some centres unmarked) [Buscopan] | – | Test Compound II>buscopan>pitofenon | – | Duration of action (small intestine motility [1]; 1 mg/kg i.v., until postdrug values reached 90% or more of predrug): 30 min; Max. height of CMC (colonic motility; 3 mg/kg intragastrically): 35 ± 17 AU; effect on colonic motility (colonic motility; 3 and 10 mg/kg i.g.): no effect on colonic motility
– | – | – | – | CCN(CC)CC(=O)Nc1c(C)cccc1C [lignocaine] | – | – | 0.086 ± 0.01 | –
